Assays:
AR / CBP ternary complex = test: Ternary complex formation assay (sandwich ELISA, AR capture / CBP detection) in VCaP cell lysates; type: cell-based; settings: 1.5 hours treatment, sandwich ELISA (AR capture, CBP or p300 detection)
Procedure, shortened: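 VCaP cells (50K/well, 5% charcoal-stripped FBS, ≥3 days) treated with bifunctional compound for 1.5 h, then lysed 30 min at 4 °C. AR captured on anti-AR (AR 441) plates; bound CBP or p300 detected by rabbit mAb plus HRP secondary. QuantaRed chemifluorescence read at ex 570/em 585, immediately and at 5 and 15 min.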

VCaP cells = test: VCaP growth inhibition assay; type: cell-based; settings: 30 pM R1881, 9 days, CTG
Procedure, shortened: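 VCaP cells in phenol red-free DMEM/5% CSS, pre-incubated 72 h, then stimulated with R1881 (final 30 pM) and treated with 1:5 serial dilutions (final 100 nM to 10 fM) for 9 days at 37 °C. Viability by CellTiter-Glo luminescence; IC50 from 4-parameter logistic fit of RLU vs concentration.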

EC50 (AR / CBP ternary complex) [nM] | IC50 (VCaP cells) [nM] | Structure (SMILES)
< 1 | ≤ 0.1 | COc1cc(OC2C(C)(C)C(NC(=O)c3ccc(N4CC5(CCC(N6CCC(n7nc(N8CCCc9cc(-c%10ccn(C)n%10)c(C(F)F)cc98)c8c7CCN(C(C)=O)C8)CC6)CC5)C4)cc3)C2(C)C)ccc1C#N (stereo not drawn) [Compound 432, 4-[7-[4-[5-acetyl-3-[7-(difluoromethyl)-6-(1-methylpyrazol-3-yl)-3,4-dihydro-2H-quinolin-1-yl]-6,7-dihydro-4H-pyrazolo[4,3-c]pyridin-1-yl]-1-piperidyl]-2-azaspiro[3.5]nonan-2-yl]-N-[3-(4-cyano-3-methoxy-phenoxy)-2,2,4,4-tetramethyl-cyclobutyl]benzamide]
> 100 | ≤ 0.1 | CC(=O)N1CCc2c(c(N3CCCc4cc(-c5cnn(C)c5)c(C(F)F)cc43)nn2C2CCN(C3CN(c4ncc(C(=O)NC5C(C)(C)C(Oc6ccc(C#N)c(Cl)c6)C5(C)C)cn4)C3)CC2)C1 (stereo not drawn) [Compound 333, 2-[3-[4-[5-acetyl-3-[7-(difluoromethyl)-6-(1-methylpyrazol-4-yl)-3,4-dihydro-2H-quinolin-1-yl]-6,7-dihydro-4H-pyrazolo[4,3-c]pyridin-1-yl]-1-piperidyl]azetidin-1-yl]-N-[3-(3-chloro-4-cyano-phenoxy)-2,2,4,4-tetramethyl-cyclobutyl]pyrimidine-5-carboxamide]
< 1 | ≤ 0.1 | CC(=O)N1CCc2c(c(N3CCCc4cc(-c5cnn(C)c5)c(C(F)F)cc43)nn2C2CCN(CC3C(C)CN(c4ncc(C(=O)NC5C(C)(C)C(Oc6ccc(C#N)c(C)c6)C5(C)C)cn4)CC3C)CC2)C1 (stereo not drawn) [Compound 462, 2-[4-[[4-[5-acetyl-3-[7-(difluoromethyl)-6-(1-methylpyrazol-4-yl)-3,4-dihydro-2H-quinolin-1-yl]-6,7-dihydro-4H-pyrazolo[4,3-c]pyridin-1-yl]-1-piperidyl]methyl]-3,5-dimethyl-1-piperidyl]-N-[3-(4-cyano-3-methyl-phenoxy)-2,2,4,4-tetramethyl-cyclobutyl]pyrimidine-5-carboxamide]
< 1 | ≤ 0.1 | COc1cc(OC2C(C)(C)C(NC(=O)c3ccc(OC4CC5(CCC(N6CCC(n7nc(N8CCCc9cc(-c%10cnn(C)c%10)c(C(F)F)cc98)c8c7CCN(C(C)=O)C8)CC6)CC5)C4)cc3)C2(C)C)ccc1C#N (stereo not drawn) [Compound 384, 4-[7-[4-[5-acetyl-3-[7-(difluoromethyl)-6-(1-methylpyrazol-4-yl)-3,4-dihydro-2H-quinolin-1-yl]-6,7-dihydro-4H-pyrazolo[4,3-c]pyridin-1-yl]-1-piperidyl]spiro[3.5]nonan-2-yl] oxy-N-[3-(4-cyano-3-methoxy-phenoxy)-2,2,4,4-tetramethyl-cyclobutyl]benzamide]
< 1 | ≤ 0.1 | CC(=O)N1CCc2c(c(N3CCCc4cc(-c5cnn(C)c5)c(C(F)F)cc43)nn2C2CCN(CC3CCN(c4ncc(C(=O)NC5C(C)(C)C(Oc6ccc(C#N)c(Cl)c6)C5(C)C)cn4)CC34CC4)CC2)C1 (stereo not drawn) [Compound 357, 2-[8-[[4-[5-acetyl-3-[7-(difluoromethyl)-6-(1-methylpyrazol-4-yl)-3,4-dihydro-2H-quinolin-1-yl]-6,7-dihydro-4H-pyrazolo[4,3-c]pyridin-1-yl]-1-piperidyl]methyl]-5-azaspiro[2.5]octan-5-yl]-N-[3-(3-chloro-4-cyano-phenoxy)-2,2,4,4-tetramethyl-cyclobutyl]pyrimidine-5-carboxamide]

Second part, the molecule before the results:

Structure (SMILES) | EC50 (AR / CBP ternary complex) [nM] | IC50 (VCaP cells) [nM]
COc1cc(OC2C(C)(C)C(NC(=O)c3ccc(OC4CC(N5CCC(n6nc(N7CCCc8cc(-c9cnn(C)c9)c(C(F)F)cc87)c7c6CCN(C(C)=O)C7)CC5)C4)cc3)C2(C)C)ccc1C#N (stereo not drawn) [Compound 375, 4-[3-[4-[5-acetyl-3-[7-(difluoromethyl)-6-(1-methylpyrazol-4-yl)-3,4-dihydro-2H-quinolin-1-yl]-6,7-dihydro-4H-pyrazolo[4,3-c]pyridin-1-yl]-1-piperidyl]cyclobutoxy]-N-[3-(4-cyano-3-methoxy-phenoxy)-2,2,4,4-tetramethyl-cyclobutyl]benzamide] | < 1 | 0.1 to 1
CC(=O)N1CCc2c(c(N3CCCc4ccc(C(F)F)cc43)nn2C2CCN(C(=O)C3CCN(c4ncc(C(=O)NC5C(C)(C)C(Oc6ccc(C#N)c(Cl)c6)C5(C)C)cn4)CC3)CC2)C1 (stereo not drawn) [Compound 122, 2-[4-[4-[5-acetyl-3-[7-(difluoromethyl)-3,4-dihydro-2H-quinolin-1-yl]-6,7-dihydro-4H-pyrazolo[4,3-c]pyridin-1-yl]piperidine-1-carbonyl]-1-piperidyl]-N-[3-(3-chloro-4-cyano-phenoxy)-2,2,4,4-tetramethyl-cyclobutyl]pyrimidine-5-carboxamide] | < 1 | ≤ 0.1
COc1cc(OC2C(C)(C)C(NC(=O)c3ccc(N4CCC(N5CCC(n6nc(N7CCCc8cc(-c9cnn(C)c9)c(C(F)F)cc87)c7c6CCN(C(C)=O)C7)CC5)C(F)(F)C4)cc3)C2(C)C)ccc1C#N (stereo not drawn) [Compound 302, 4-[4-[4-[5-acetyl-3-[7-(difluoromethyl)-6-(1-methylpyrazol-4-yl)-3,4-dihydro-2H-quinolin-1-yl]-6,7-dihydro-4H-pyrazolo[4,3-c]pyridin-1-yl]-1-piperidyl]-3,3-difluoro-1-piperidyl]-N-[3-(4-cyano-3-methoxy-phenoxy)-2,2,4,4-tetramethyl-cyclobutyl]benzamide] | < 1 | ≤ 0.1
Cn1cc(-c2cc3cccc(-c4cc(C5CCN(CC6CCN(c7ncc(C(=O)NC8C(C)(C)C(Oc9ccc(C#N)c(Cl)c9)C8(C)C)cn7)CC6)CC5)c5c(c4)n(C)c(=O)n5C)c3cn2)cn1 (stereo not drawn) [Compound 213, N-[3-(3-chloro-4-cyano-phenoxy)-2,2,4,4-tetramethyl-cyclobutyl]-2-[4-[[4-[1,3-dimethyl-6-[3-(1-methylpyrazol-4-yl)-8-isoquinolyl]-2-oxo-benzimidazol-4-yl]-1-piperidyl]methyl]-1-piperidyl]pyrimidine-5-carboxamide] | > 100 | 0.1 to 1
COc1cc(OC2C(C)(C)C(NC(=O)c3ccc(N4CCC(CCc5ccc(-c6cc7cccc(-c8nn(C9CCOCC9)c9c8CN(C(C)=O)CC9)c7cn6)cc5)CC4)cc3)C2(C)C)ccc1C#N (stereo not drawn) [Compound 254, 4-[4-[2-[4-[8-(5-acetyl-1-tetrahydropyran-4-yl-6,7-dihydro-4H-pyrazolo[4,3-c]pyridin-3-yl)-3-isoquinolyl]phenyl]ethyl]-1-piperidyl]-N-[3-(4-cyano-3-methoxy-phenoxy)-2,2,4,4-tetramethyl-cyclobutyl]benzamide] | < 1 | 0.1 to 1
CC(=O)N1CCc2c(c(N3CCCc4cc(-c5cnn(C)c5)c(C)cc43)nn2C2CCN(C(=O)C3CCN(c4ncc(C(=O)NC5C(C)(C)C(Oc6ccc(C#N)c(Cl)c6)C5(C)C)cn4)CC3)CC2)C1 (stereo not drawn) [Compound 120, 2-[4-[4-[5-acetyl-3-[7-methyl-6-(1-methylpyrazol-4-yl)-3,4-dihydro-2H-quinolin-1-yl]-6,7-dihydro-4H-pyrazolo[4,3-c]pyridin-1-yl]piperidine-1-carbonyl]-1-piperidyl]-N-[3-(3-chloro-4-cyano-phenoxy)-2,2,4,4-tetramethyl-cyclobutyl]pyrimidine-5-carboxamide] | < 1 | ≤ 0.1
CC(=O)N1CCc2c(c(-c3cccc4cc(-c5cnn(C6CCN(C7CCN(c8ncc(C(=O)NC9C(C)(C)C(Oc%10ccc(C#N)c(Cl)c%10)C9(C)C)cn8)CC7)C6)c5)ncc34)nn2C2CCOCC2)C1 (stereo not drawn) [Compound 222, 2-[4-[3-[4-[8-(5-acetyl-1-tetrahydropyran-4-yl-6,7-dihydro-4H-pyrazolo[4,3-c]pyridin-3-yl)-3-isoquinolyl]pyrazol-1-yl]pyrrolidin-1-yl]-1-piperidyl]-N-[3-(3-chloro-4-cyano-phenoxy)-2,2,4,4-tetramethyl-cyclobutyl]pyrimidine-5-carboxamide] | < 1 | 0.1 to 1
COc1cc(OC2C(C)(C)C(NC(=O)c3ccc(N4CCC(C(=O)N5CCC(n6nc(-c7cccc8cc(C9CC9)c(C(F)F)cc78)c7c6CCN(C(C)=O)C7)CC5)CC4)cc3)C2(C)C)ccc1C#N (stereo not drawn) [Compound 257, 4-[4-[4-[5-acetyl-3-[6-cyclopropyl-7-(difluoromethyl)-1-naphthyl]-6,7-dihydro-4H-pyrazolo[4,3-c]pyridin-1-yl]piperidine-1-carbonyl]-1-piperidyl]-N-[3-(4-cyano-3-methoxy-phenoxy)-2,2,4,4-tetramethyl-cyclobutyl]benzamide] | < 1 | 0.1 to 1
COc1cc(OC2C(C)(C)C(NC(=O)c3ccc(N4CCC(OC5CCC(n6nc(N7CCCc8cc(-c9cnn(C)c9)c(C(F)F)cc87)c7c6CCN(C(C)=O)C7)CC5)CC4)cc3)C2(C)C)ccc1C#N (stereo not drawn) [Compound 309, 4-[4-[4-[5-acetyl-3-[7-(difluoromethyl)-6-(1-methylpyrazol-4-yl)-3,4-dihydro-2H-quinolin-1-yl]-6,7-dihydro-4H-pyrazolo[4,3-c]pyridin-1-yl]cyclohexoxy]-1-piperidyl]-N-[3-(4-cyano-3-methoxy-phenoxy)-2,2,4,4-tetramethyl-cyclobutyl]benzamide] | < 1 | 0.1 to 1
COc1cc(OC2C(C)(C)C(NC(=O)c3ccc(N4CCC(CN5CCC(n6nc(N7CCCc8cc(-c9cnn(C)c9)c(C(F)F)cc87)c7c6CCN(C(C)=O)C7)CC5)C(OC)C4)cc3)C2(C)C)ccc1C#N (stereo not drawn) [Compound 332, 4-[4-[[4-[5-acetyl-3-[7-(difluoromethyl)-6-(1-methylpyrazol-4-yl)-3,4-dihydro-2H-quinolin-1-yl]-6,7-dihydro-4H-pyrazolo[4,3-c]pyridin-1-yl]-1-piperidyl]methyl]-3-methoxy-1-piperidyl]-N-[3-(4-cyano-3-methoxy-phenoxy)-2,2,4,4-tetramethyl-cyclobutyl]benzamide] | < 1 | ≤ 0.1

Reference: patent US20250129070A1, “BIFUNCTIONAL ANDROGEN RECEPTOR COMPOUNDS” (priority 2023, published 2025)
